Measured values as given in article PMC11073699, “Odorant receptors for floral- and plant-derived volatiles in the yellow fever mosquito, Aedes aegypti (Diptera: Culicidae)” (PLOS ONE, 2024).
Values joined by “and” are separate entries in the source; they are usually repeats but may differ in a detail not shown here. Equal values may be shown once.

Columns and labels:
Type in all cases: cell-based
[1] = target: T1, AaegOR13 (Aedes aegypti, UniProt Q16Z13); test: Two-electrode voltage clamp of Xenopus laevis oocytes expressing AaegOR13/Orco (blends, unitary compounds, concentration-response); details: unitary compounds
T1 sequence (Q16Z13 1-389): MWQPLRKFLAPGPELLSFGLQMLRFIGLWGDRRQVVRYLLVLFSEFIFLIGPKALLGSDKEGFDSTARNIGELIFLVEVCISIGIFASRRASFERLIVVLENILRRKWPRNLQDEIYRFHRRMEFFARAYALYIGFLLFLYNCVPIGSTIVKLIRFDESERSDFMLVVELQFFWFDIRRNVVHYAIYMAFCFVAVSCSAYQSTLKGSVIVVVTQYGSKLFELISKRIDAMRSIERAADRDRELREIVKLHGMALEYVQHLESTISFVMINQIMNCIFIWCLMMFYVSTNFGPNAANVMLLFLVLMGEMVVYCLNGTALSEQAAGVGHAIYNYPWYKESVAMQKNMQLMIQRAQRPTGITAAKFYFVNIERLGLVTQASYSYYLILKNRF
T1 sequence (Q178U6 1-478 partner): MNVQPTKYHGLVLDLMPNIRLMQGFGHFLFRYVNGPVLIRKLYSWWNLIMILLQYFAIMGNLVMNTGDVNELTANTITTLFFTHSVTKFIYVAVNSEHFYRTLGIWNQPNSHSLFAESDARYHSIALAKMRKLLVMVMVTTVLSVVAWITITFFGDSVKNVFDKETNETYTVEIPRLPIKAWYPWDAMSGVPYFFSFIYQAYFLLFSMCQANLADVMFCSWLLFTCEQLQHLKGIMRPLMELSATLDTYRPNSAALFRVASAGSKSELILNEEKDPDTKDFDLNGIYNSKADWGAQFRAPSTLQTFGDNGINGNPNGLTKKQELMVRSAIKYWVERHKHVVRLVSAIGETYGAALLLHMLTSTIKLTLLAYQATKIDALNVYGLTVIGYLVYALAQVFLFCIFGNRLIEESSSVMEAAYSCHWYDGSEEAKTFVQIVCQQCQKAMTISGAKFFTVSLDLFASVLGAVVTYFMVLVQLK
Text: (§1) The coding regions of ten AaegOR genes of interest (S3 File) and AaegOrco were synthesized by Twist Bioscience (San Francisco, CA, USA) and cloned into the pENTR plasmid. The Gateway LR directional cloning system (Invitrogen Corp., Carlsbad, CA, USA) was utilized to subclone AaegOR coding regions into the pSP64t-RFA oocyte expression plasmid. Plasmids were purified using the GeneJet Plasmid Miniprep Kit (ThermoFisher Scientific, Waltham, MA, USA). Purified plasmids were sequenced in both directions to confirm coding regions.
(§2) Chemical compounds (S6 File) used in the deorphanization of AaegORs were purchased from Acros Organics (Morris, NJ, USA), Alfa Aesar (Ward Hill, MA, USA), and ThermoFisher Scientific (Waltham, MA, USA) at the highest purity available. Compounds were stored as 1M stocks in 100% DMSO. Serial dilutions of each compound were prepared in 10% DMSO and blended by chemical class.
(§3) pSP64t-RFA: AaegOR clones were linearized using Xbal, and cRNAs were synthesized using the mMESSAGE mMACHINE ® SP6 kit (Life Technologies, Carlsbad, CA, USA). Xenopus laevis stage V-VII oocytes purchased from Xenopus1 (Dexter, MI, USA) were stored at 18°C in Incubation medium (ND96 96 with 5% dialyzed horse serum, 50μg/mL gentamycin, 100μg/mL streptomycin, 100μg/mL penicillin, and 550μg/mL sodium pyruvate). 30nL of cRNA was injected into multiple oocytes using a microinjection syringe pump (World Precision Instruments, Sarasota, FL, USA) maintained at 18°C for 48–72 hrs. Odorant blends were perfused across individual oocytes for 10–15 seconds, held at a resting membrane potential of -80 mV using an OC-725C oocyte clamp (Warner Instruments, LLC, Hamden, CT, USA). Induced currents were measured indirectly using the two-electrode voltage clamp technique (TEVC). Following each stimulus, currents were allowed to return to baseline before further stimulation. Data was captured using the Digidata 1550 B digitizer and PClamp10 software (Molecular Devices, San Jose, CA, USA). Concentration-response curves were generated by perfusing unitary odorants over oocytes at increasing concentrations from [10^-3M] to [10^-9M]. Data were analyzed using GraphPad Prism 8 (GraphPad Software Inc., La Jolla, CA, USA). At least two biological replicates were conducted at each concentration and for each compound. Data for at least seven oocytes responding to each compound was analyzed (S7 File).

[2] = target: T2, AaegOR31 (Aedes aegypti, UniProt Q16JU0); test: Two-electrode voltage clamp of Xenopus laevis oocytes expressing AaegOR31/Orco (blends, unitary compounds, concentration-response); details: AaegOR31, compounds of blend Alcohols 1
T2 sequence (Q16JU0 1-381): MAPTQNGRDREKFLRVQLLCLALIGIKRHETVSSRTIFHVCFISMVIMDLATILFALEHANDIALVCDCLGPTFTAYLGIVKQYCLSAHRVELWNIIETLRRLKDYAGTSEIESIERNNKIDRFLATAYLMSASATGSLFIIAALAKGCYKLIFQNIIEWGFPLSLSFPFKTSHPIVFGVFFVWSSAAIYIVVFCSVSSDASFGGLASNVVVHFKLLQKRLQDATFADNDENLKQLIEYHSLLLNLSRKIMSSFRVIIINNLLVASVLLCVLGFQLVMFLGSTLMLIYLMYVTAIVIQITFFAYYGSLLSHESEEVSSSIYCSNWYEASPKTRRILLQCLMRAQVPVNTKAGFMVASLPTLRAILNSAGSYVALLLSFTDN
T2 sequence (Q178U6 1-478 partner): T1 sequence (Q178U6 1-478 partner)
Text: as §1, §2, §3

[3] = target: T3, AaegOR11 (Aedes aegypti, UniProt Q16PN4); test: Two-electrode voltage clamp of Xenopus laevis oocytes expressing AaegOR11/Orco (blends, unitary compounds, concentration-response); details: for Normalized response, Average, unitary compounds of blend Terpenes 3: average over oocytes (9; fenchones 6); for Normalized response, unitary compounds of blend Terpenes 3: individual oocytes, normalized to cis-Decahydro-1-napthol = 100; for Raw data (Responses in nA), unitary compounds of blend Terpenes 3: individual oocytes 1-9 (replicates)
T3 sequence (Q16PN4 1-420): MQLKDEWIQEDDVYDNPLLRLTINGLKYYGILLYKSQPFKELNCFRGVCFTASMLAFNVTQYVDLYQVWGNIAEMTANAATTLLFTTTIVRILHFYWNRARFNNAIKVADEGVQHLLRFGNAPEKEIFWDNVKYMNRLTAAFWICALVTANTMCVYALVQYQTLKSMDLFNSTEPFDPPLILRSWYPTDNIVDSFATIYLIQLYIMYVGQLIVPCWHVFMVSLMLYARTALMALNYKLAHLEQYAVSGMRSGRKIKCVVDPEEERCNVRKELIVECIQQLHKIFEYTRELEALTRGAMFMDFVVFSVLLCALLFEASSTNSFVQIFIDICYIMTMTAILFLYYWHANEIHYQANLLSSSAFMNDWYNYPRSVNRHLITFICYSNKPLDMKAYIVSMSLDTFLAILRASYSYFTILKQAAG
T3 sequence (Q178U6 1-478 partner): T1 sequence (Q178U6 1-478 partner)
Text: as §1, §2, §3

[4] = individual oocytes (Oocyte 1-8)

| Structure (SMILES) | Raw Data (Responses in nA), Alcohols 1 unitary compounds [2, 4] | Normalized response, Average, unitary compounds of blend Terpenes 3 [3] | Normalized response, unitary compounds of blend Terpenes 3 [3] | also measured |
| --- | --- | --- | --- | --- |
| CC1CCC(C(C)C)C(O)C1 (racemic) [DL-menthol] | 5.0 nA (2×) and 0.0 nA (6×) |  |  | Raw data (Responses in nA), unitary compounds of Indoles 1, Alcohols 1, Alcohols 3 ([1]; individual oocytes 1-7): 0.0 nA (4×) and 30.0 nA and 10.0 nA and 5.0 nA |
| CC1(C)C(=O)[C@@]2(C)CCC1C2 (single isomer, unassigned; (+)) [(+) Fenchone] |  | 36.7 | 40.0 and 50.0 (2×) and 30.0 and 25.0 (2×) | Raw data (Responses in nA), unitary compounds, additional oocytes ([3]; six further oocytes in columns without head (fenchone comparison with cis-Decahydro-1-napthol)): 10 nA |
| CC1(C)C(=O)[C@]2(C)CCC1C2 (single isomer, unassigned; (-)) [(-) Fenchone] |  | 23.3 | 20.0 and 25.0 (2×) and 10.0 (2×) and 50.0 |  |
| CC(C)O [2-propanol] | 10.0 nA and 20.0 nA and 15.0 nA and 0.0 nA (5×) |  |  | Normalized response, unitary compounds, Average ([1]; average of oocytes 1-7): 0.0; Raw data (Responses in nA), unitary compounds of Indoles 1, Alcohols 1, Alcohols 3 ([1]; individual oocytes 1-7): 0.0 nA; Normalized response, unitary compounds of Indoles 1, Alcohols 1, Alcohols 3 ([1]; normalized per oocyte, individual oocytes 1-7): 0.0; Normalized response, Average, Alcohols 1 unitary compounds ([2]; average of 8 oocytes): 10.7; Normalized response, Alcohols 1 unitary compounds ([2]; individual oocytes (Oocyte 1-8), normalized to the strongest compound per oocyte): 5.9 and 50.0 and 30.0 and 0.0 (5×) |
| CC(C)(C)c1ccc(O)cc1 [4-tert butylphenol] | 0.0 nA (7×) and 10.0 nA |  |  |  |
| CC1(C)[C@H]2CC[C@]1(C)[C@H](O)C2 [(-)-Borneol] |  |  |  | Raw data (Responses in nA), unitary compounds of blend Terpenes 3 [3]: 0 nA |
| CCCCC/C=C\C=C\C(=O)OCC [Ethyl-2-trans-4-cis-decadienoate] |  | 0.0 | 0.0 | Raw data (Responses in nA), unitary compounds of blend Terpenes 3 [3]: 0 nA |
